Assay: comparative dissolution test in deionized water
Conditions: for time to complete dissolution: 200 mg suspended in 25 ml deionized water, 20° C., magnetic stirring at 25 rpm, monosodium salt

| SMILES | time to complete dissolution | water solubility with respect to crystalline forms (amorphous form, preferably lyophilized, vs commercially available or otherwise described crystalline forms) |
| --- | --- | --- |
| O=P([O-])(O)C(O)(Cc1cccnc1)P(=O)(O)O.[Na+] [amorphous sodium risedronate, 3-pyridil-1-hydroxyethyliden-1,1-biphosphonic acid monosodium salt] | ≤ 2 ′ | improved water solubility |
| O=P([O-])(O)C(O)(Cc1cccnc1)P(=O)(O)O.[Na+] [sodium risedronate hemipentahydrate, 3-pyridil-1-hydroxyethyliden-1,1-biphosphonic acid monosodium salt] | > 30 ′ |  |
